Results: PubChem BioAssay (NCI)
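Tested at 5 concentrations; 48 h exposure; 96-well plates; endpoints linearly interpolated, else capped at highest concentration. GI50 = concentration required for 50% inhibition of growth. TGI is the concentration that stops growth completely.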

How the values were obtained:
Assay in all cases: NCI anticancer screen, dose series, 48 h
TK-10 renal = system: TK-10 renal
SK-MEL-2 melanoma = system: SK-MEL-2 melanoma
IGROV1 ovarian = system: IGROV1 ovarian
M14 melanoma = system: M14 melanoma
UACC-62 melanoma = system: UACC-62 melanoma
SN12C renal = system: SN12C renal
RXF 393 renal = system: RXF 393 renal
SK-OV-3 ovarian = system: SK-OV-3 ovarian
SNB-75 CNS = system: SNB-75 CNS
A498 renal = system: A498 renal

CNC1=CC(=O)C2=C(C1=O)C1C3=C(C(=O)C(Br)=C(OC)C3=O)C2c2ccccc21 (centres undefined)
GI50 (TK-10 renal): 7.56 µM
TGI (TK-10 renal): 26.2 µM
GI50 (SK-MEL-2 melanoma): 3.03 µM
TGI (SK-MEL-2 melanoma): 14.1 µM
GI50 (IGROV1 ovarian): 1.35 µM
TGI (IGROV1 ovarian): 3.2 µM
GI50 (M14 melanoma): 6.76 µM
TGI (M14 melanoma): 17.1 µM
GI50 (UACC-62 melanoma): 1.47 µM
TGI (UACC-62 melanoma): 3.89 µM
GI50 (SN12C renal): 1.05 µM
TGI (SN12C renal): 2.07 µM
GI50 (RXF 393 renal): 1.49 µM
TGI (RXF 393 renal): 2.99 µM
GI50 (SK-OV-3 ovarian): 2.15 µM
TGI (SK-OV-3 ovarian): > 50 µM
GI50 (SNB-75 CNS): 5.69 µM
TGI (SNB-75 CNS): 18.2 µM

Cc1nc2ccccc2c(/C=C/c2ccccc2)c1C(=O)/C=C/c1ccc(Cl)cc1
GI50 (UACC-62 melanoma): 1.5 µM
TGI (UACC-62 melanoma): 3.25 µM
GI50 (SN12C renal): 1.71 µM
TGI (SN12C renal): 4.39 µM
GI50 (RXF 393 renal): 1.28 µM
TGI (RXF 393 renal): 2.64 µM
GI50 (SK-OV-3 ovarian): > 100 µM
TGI (SK-OV-3 ovarian): > 100 µM

CCCC(=O)O[C@]1(C)CC[C@@H]2[C@H]3[C@@H]1[C@@H]1C/C(C)=C\CC[C@](C)(OC(=O)[C@@H]2C)[C@H]3O1
GI50 (TK-10 renal): 86.9 µM
TGI (TK-10 renal): > 100 µM
GI50 (SK-MEL-2 melanoma): 49.5 µM
TGI (SK-MEL-2 melanoma): > 100 µM
GI50 (IGROV1 ovarian): 24.3 µM
TGI (IGROV1 ovarian): > 100 µM
GI50 (M14 melanoma): 32.5 µM
TGI (M14 melanoma): > 100 µM
GI50 (UACC-62 melanoma): 24.4 µM
TGI (UACC-62 melanoma): > 100 µM
GI50 (SN12C renal): 47.9 µM
TGI (SN12C renal): > 100 µM
GI50 (RXF 393 renal): > 100 µM
TGI (RXF 393 renal): > 100 µM
GI50 (SK-OV-3 ovarian): > 100 µM
TGI (SK-OV-3 ovarian): > 100 µM
GI50 (SNB-75 CNS): > 100 µM
TGI (SNB-75 CNS): > 100 µM

NCCn1cnc2nc(NC(=O)c3ccccc3)[nH]c(=O)c21
TGI (TK-10 renal): > 100 µM
TGI (SK-MEL-2 melanoma): > 100 µM
TGI (IGROV1 ovarian): > 100 µM
TGI (SN12C renal): > 100 µM
TGI (A498 renal): > 100 µM
TGI (RXF 393 renal): > 100 µM
TGI (SNB-75 CNS): > 100 µM

C/C=C/C=C/CCCCCCCCCCCCC[C@]1(OC)C=CC(CC(=O)OC)OO1 (some centres undefined)
GI50 (TK-10 renal): 17.6 µM
TGI (TK-10 renal): 31.7 µM
TGI (SK-MEL-2 melanoma): 69.5 µM
GI50 (IGROV1 ovarian): 5.61 µM
TGI (IGROV1 ovarian): 20 µM
TGI (M14 melanoma): 31.9 µM
TGI (UACC-62 melanoma): 29.8 µM
TGI (SN12C renal): 48 µM
GI50 (RXF 393 renal): 16.5 µM
TGI (RXF 393 renal): 31 µM
TGI (SK-OV-3 ovarian): 81 µM
TGI (SNB-75 CNS): 31.2 µM

Cc1cccc(C)c1NC(=O)CCCC(=O)C(C#N)c1ccc(Cl)cc1 (centres undefined)
TGI (TK-10 renal): > 100 µM
TGI (SK-MEL-2 melanoma): > 100 µM
TGI (IGROV1 ovarian): > 100 µM
TGI (M14 melanoma): > 100 µM
TGI (UACC-62 melanoma): > 100 µM
TGI (SN12C renal): > 100 µM
TGI (A498 renal): > 100 µM
TGI (SK-OV-3 ovarian): > 100 µM
TGI (SNB-75 CNS): > 100 µM

CCCCCCCC(=O)NS(=O)(=O)c1ccccc1
TGI (TK-10 renal): > 100 µM
TGI (SK-MEL-2 melanoma): > 100 µM
TGI (IGROV1 ovarian): > 100 µM
TGI (M14 melanoma): > 100 µM
TGI (UACC-62 melanoma): > 100 µM
TGI (A498 renal): > 100 µM
TGI (SK-OV-3 ovarian): > 100 µM
TGI (SNB-75 CNS): > 100 µM

Cc1cc(Cl)cc2c1NC(=O)C2(O)CC(=O)c1ccc(F)cc1 (centres undefined)
TGI (TK-10 renal): > 100 µM
TGI (SK-MEL-2 melanoma): > 100 µM
TGI (IGROV1 ovarian): > 100 µM
TGI (M14 melanoma): > 100 µM
TGI (UACC-62 melanoma): 42 µM
TGI (SN12C renal): > 100 µM
TGI (RXF 393 renal): 41.5 µM
TGI (SK-OV-3 ovarian): > 100 µM
TGI (SNB-75 CNS): > 100 µM

COc1ccc(/C(=C\c2cc(OC)c(OC)c(OC)c2)C(=O)O)cc1
TGI (TK-10 renal): > 100 µM
TGI (IGROV1 ovarian): > 100 µM
TGI (M14 melanoma): > 100 µM
TGI (UACC-62 melanoma): > 100 µM
TGI (SN12C renal): > 100 µM
TGI (A498 renal): 53.3 µM
TGI (RXF 393 renal): 39.7 µM
TGI (SNB-75 CNS): 75.1 µM

CSC(=NC#N)S/C=C/C(=O)c1cccc2ccccc12
GI50 (TK-10 renal): 22.2 µM
TGI (TK-10 renal): 45.4 µM
GI50 (SK-MEL-2 melanoma): 34.3 µM
TGI (SK-MEL-2 melanoma): > 100 µM
GI50 (IGROV1 ovarian): 21 µM
TGI (IGROV1 ovarian): 48.1 µM
GI50 (M14 melanoma): 29.9 µM
TGI (M14 melanoma): > 100 µM
GI50 (UACC-62 melanoma): 27.7 µM
TGI (UACC-62 melanoma): > 100 µM
GI50 (SN12C renal): 31.1 µM
TGI (SN12C renal): > 100 µM
GI50 (A498 renal): 40.2 µM
TGI (A498 renal): > 100 µM
GI50 (RXF 393 renal): 32.3 µM
TGI (RXF 393 renal): > 100 µM
GI50 (SK-OV-3 ovarian): 61.1 µM
TGI (SK-OV-3 ovarian): > 100 µM

OCC#CCCCCOCC#Cc1ccccc1C#CCOCCCCC#CCO
GI50 (TK-10 renal): 11.9 µM
TGI (TK-10 renal): 41.6 µM
GI50 (SK-MEL-2 melanoma): 51.1 µM
TGI (SK-MEL-2 melanoma): > 100 µM
GI50 (IGROV1 ovarian): 46.1 µM
TGI (IGROV1 ovarian): > 100 µM
GI50 (M14 melanoma): 31.2 µM
TGI (M14 melanoma): > 100 µM
GI50 (UACC-62 melanoma): 18.4 µM
TGI (UACC-62 melanoma): 34.3 µM
GI50 (SN12C renal): 22.3 µM
TGI (SN12C renal): 39 µM
GI50 (A498 renal): 4.35 µM
TGI (A498 renal): 34.3 µM
GI50 (RXF 393 renal): 31.8 µM
TGI (RXF 393 renal): 96.9 µM
GI50 (SNB-75 CNS): 20.6 µM
TGI (SNB-75 CNS): 66.2 µM

Cc1ccc(N(/C=C/C(=O)C(F)(F)F)CC(=O)c2ccc(Cl)c(Cl)c2)cc1
GI50 (TK-10 renal): 12.1 µM
TGI (TK-10 renal): 24.5 µM
GI50 (SK-MEL-2 melanoma): 3.26 µM
TGI (SK-MEL-2 melanoma): 16.1 µM
GI50 (IGROV1 ovarian): 5.75 µM
TGI (IGROV1 ovarian): 18.6 µM
GI50 (M14 melanoma): 4.79 µM
TGI (M14 melanoma): 18.6 µM
GI50 (UACC-62 melanoma): 5.57 µM
TGI (UACC-62 melanoma): 19 µM
GI50 (SN12C renal): 13.1 µM
TGI (SN12C renal): 25.8 µM
GI50 (A498 renal): 8.05 µM
TGI (A498 renal): 20.9 µM
GI50 (RXF 393 renal): 3.82 µM
TGI (RXF 393 renal): 19 µM
GI50 (SNB-75 CNS): 1.67 µM
TGI (SNB-75 CNS): 16.4 µM

CCOC(=O)C1=C(c2ccccc2)NC(c2ccccc2)=C(C(=O)OCC)c2c1c(=O)cc[nH]c2=O
TGI (TK-10 renal): > 100 µM
TGI (SK-MEL-2 melanoma): > 100 µM
TGI (IGROV1 ovarian): > 100 µM
TGI (M14 melanoma): > 100 µM
TGI (UACC-62 melanoma): > 100 µM
TGI (SN12C renal): > 100 µM
TGI (SK-OV-3 ovarian): > 100 µM
TGI (SNB-75 CNS): > 100 µM

Cn1ccc2c3c(=O)cc[nH]c3ccc21
GI50 (TK-10 renal): > 100 µM
TGI (TK-10 renal): > 100 µM
GI50 (SK-MEL-2 melanoma): > 100 µM
TGI (SK-MEL-2 melanoma): > 100 µM
GI50 (IGROV1 ovarian): > 100 µM
TGI (IGROV1 ovarian): > 100 µM
GI50 (M14 melanoma): > 100 µM
TGI (M14 melanoma): > 100 µM
GI50 (UACC-62 melanoma): > 100 µM
TGI (UACC-62 melanoma): > 100 µM
GI50 (SN12C renal): > 100 µM
TGI (SN12C renal): > 100 µM
GI50 (RXF 393 renal): > 100 µM
TGI (RXF 393 renal): > 100 µM
GI50 (SK-OV-3 ovarian): 80.1 µM
TGI (SK-OV-3 ovarian): > 100 µM
GI50 (SNB-75 CNS): > 100 µM
TGI (SNB-75 CNS): > 100 µM

CC(=O)OC1CC2(O)C(CCC3(C)C(c4ccc(=O)oc4)CCC32O)C2(C)CCC(OC3OC(CO)C(O)C(O)C3O)C=C12 (centres undefined)
GI50 (TK-10 renal): 0.0226 µM
TGI (TK-10 renal): 0.201 µM
GI50 (SK-MEL-2 melanoma): 0.0474 µM
TGI (SK-MEL-2 melanoma): 0.413 µM
GI50 (IGROV1 ovarian): 0.0318 µM
TGI (IGROV1 ovarian): 0.272 µM
GI50 (M14 melanoma): 0.0356 µM
TGI (M14 melanoma): 0.129 µM
GI50 (UACC-62 melanoma): 0.03 µM
TGI (UACC-62 melanoma): 0.101 µM
GI50 (A498 renal): 0.0339 µM
TGI (A498 renal): 0.287 µM
GI50 (RXF 393 renal): 0.0199 µM
TGI (RXF 393 renal): 0.0538 µM
GI50 (SK-OV-3 ovarian): 0.0447 µM
TGI (SK-OV-3 ovarian): 0.717 µM
GI50 (SNB-75 CNS): 0.0333 µM
TGI (SNB-75 CNS): 0.192 µM

Cc1ccc(S(=O)(=O)N[C@@H](Cc2ccccc2)C(=O)CCl)cc1
GI50 (TK-10 renal): 19.4 µM
TGI (TK-10 renal): 41.7 µM
GI50 (SK-MEL-2 melanoma): 15 µM
TGI (SK-MEL-2 melanoma): 35.8 µM
GI50 (IGROV1 ovarian): 8.25 µM
TGI (IGROV1 ovarian): 42 µM
GI50 (M14 melanoma): 19.9 µM
TGI (M14 melanoma): 63.1 µM
GI50 (RXF 393 renal): 14.6 µM
TGI (RXF 393 renal): 37.2 µM
GI50 (SK-OV-3 ovarian): 47.5 µM
TGI (SK-OV-3 ovarian): > 100 µM
GI50 (SNB-75 CNS): 16.7 µM
TGI (SNB-75 CNS): 35.8 µM
